Laboratory results: ChEMBL document CHEMBL1201862, “PubChem BioAssay data set” (2004)
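These data come from cells grown in 96-well plates and exposed to compound for 48 hours at five concentrations. The concentration for 50% growth inhibition is given as GI50.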 Activity calls are given as the source filed them. No stated cut-off is given here; in the data, active = GI50 up to about 1.1 µM and inactive = higher.

Columns and labels:
Test in all cases: NCI-60 cell line screen, 48 h
[1] = system: NCI-H522
[2] = system: OVCAR-3
[3] = system: SNB-19
[4] = system: Malme-3M
[5] = system: MCF7
[6] = system: SF-268
[7] = system: T47D
[8] = system: PC-3
[9] = system: IGROV-1
[10] = system: COLO 205
[11] = system: KM12
[12] = system: HCT-15
[13] = system: SF-295
[14] = system: HOP-92
[15] = system: BT-549
[16] = system: OVCAR-4
[17] = system: MOLT-4
[18] = system: EKVX
[19] = system: MDA-MB-231
[20] = system: RXF 393

Row | Compound | GI50 [1] | GI50 [2] | GI50 [3] | GI50 [4] | GI50 [5] | GI50 [6] | GI50 [7] | GI50 [8] | GI50 [9] | GI50 [10] | GI50 [11] | GI50 [12] [µM] | GI50 [13] | GI50 [14] | GI50 [15] | GI50 [16] | GI50 [17] | GI50 [18] | GI50 [19] | GI50 [20]
1 | CCN(CC)CCCC(C)Nc1ccnc(/C=C/c2ccc(Cl)cc2)c1 (configuration not stated) | 1.63 µM (inactive) | 1.63 µM (inactive) | 3.4 µM (inactive) | 1.21 µM (inactive) | 2.55 µM (inactive) | 3.06 µM (inactive) | 1.93 µM (inactive) | 1.56 µM (inactive) | 2.17 µM (inactive) | 1.35 µM (inactive) | 2.02 µM (inactive) | 1.82 | 3.02 µM (inactive) | 1.26 µM (inactive) | 2.19 µM (inactive) | 3.51 µM (inactive) | 1.22 µM (inactive) | 4.2 µM (inactive) | 0.497 µM (active) | 
2 | O=[N+]([O-])c1ccc2nc(-c3ccccn3)c(-c3ccccn3)nc2c1 | 44.9 µM (inactive) | 29.4 µM (inactive) | > 100 µM (inactive) | 61.2 µM (inactive) | 57.7 µM (inactive) | > 100 µM (inactive) | > 100 µM (inactive) | 38.5 µM (inactive) | 94.6 µM (inactive) | 30.5 µM (inactive) | > 100 µM (inactive) | 43 | 96.8 µM (inactive) | > 100 µM (inactive) | > 100 µM (inactive) | > 100 µM (inactive) | > 100 µM (inactive) | 71 µM (inactive) |  | 86.5 µM (inactive)
3 | C=CCNC1=C2C[C@@H](C)C[C@@H](OC)[C@H](OC(=O)CCCCN)[C@H](C)/C=C(\C)[C@@H](OC(N)=O)[C@H](OC)/C=C\C=C(/C)C(=O)NC(=CC1=O)C2=O | 13.6 µM (inactive) | 3.22 µM (inactive) | 11.3 µM (inactive) | 6.71 µM (inactive) | 3.77 µM (inactive) | 16.9 µM (inactive) | 14.8 µM (inactive) |  | 13.6 µM (inactive) | 5.22 µM (inactive) | 4.97 µM (inactive) | 18.7 | 15.7 µM (inactive) | 18.8 µM (inactive) | 19 µM (inactive) | 15.8 µM (inactive) | 9.14 µM (inactive) | 13.7 µM (inactive) | 14.2 µM (inactive) | 14.8 µM (inactive)
4 | CC(=O)C(=[N+]=[N-])C(=O)N1CCOC1=O |  | > 10 µM (inactive) | > 10 µM (inactive) | > 10 µM (inactive) | > 10 µM (inactive) | > 10 µM (inactive) | > 10 µM (inactive) | > 10 µM (inactive) | > 10 µM (inactive) | > 10 µM (inactive) | > 10 µM (inactive) | > 10 | > 10 µM (inactive) |  | > 10 µM (inactive) | > 10 µM (inactive) | > 10 µM (inactive) | > 10 µM (inactive) | > 10 µM (inactive) | > 10 µM (inactive)
5 | C[C@]12CC[C@H](O)C[C@@H]1CC[C@@H]1[C@@H]2CC[C@]2(C)[C@@H](C3=CC(=O)OC3)CC[C@]12O | 0.719 µM (active) | 3.12 µM (inactive) | 4.95 µM (inactive) | 2.16 µM (inactive) |  | 1.75 µM (inactive) | 3.77 µM (inactive) | 2.58 µM (inactive) | 3.26 µM (inactive) | 3.18 µM (inactive) | 5.81 µM (inactive) | 1.86 | 2.73 µM (inactive) | 5.42 µM (inactive) | 1.88 µM (inactive) | 2.08 µM (inactive) | 0.359 µM (active) | 2.38 µM (inactive) | 8.89 µM (inactive) | 0.736 µM (active)
6 | O=C(O)c1ccc(NC(NC(=O)C(C(F)(F)F)C(F)(F)F)(C(F)(F)F)C(F)(F)F)cc1 |  |  | > 100 µM (inactive) |  |  | > 100 µM (inactive) | > 100 µM (inactive) | > 100 µM (inactive) | > 100 µM (inactive) | > 100 µM (inactive) |  | > 100 |  |  | > 100 µM (inactive) |  | > 100 µM (inactive) | > 100 µM (inactive) |  | > 100 µM (inactive)
7 | CCCCn1c(C)c2c(c1C)C(=O)N(CCN1CCN(c3ccccc3Cl)CC1)C2=O | 25.5 µM (inactive) | 50.7 µM (inactive) | 92.3 µM (inactive) | 21 µM (inactive) | 32.4 µM (inactive) | 17.6 µM (inactive) | 22.5 µM (inactive) | 28.4 µM (inactive) | 30.9 µM (inactive) | 35 µM (inactive) | 31.5 µM (inactive) | 35.6 | 23.1 µM (inactive) | 25.4 µM (inactive) | 17.3 µM (inactive) | 51.2 µM (inactive) | 22 µM (inactive) | 35.6 µM (inactive) | 51.2 µM (inactive) | 
8 | O=CNc1ccc(S(=O)(=O)c2ccc(NC=O)cc2)cc1 | > 100 µM (inactive) | > 100 µM (inactive) | > 100 µM (inactive) | > 100 µM (inactive) | > 100 µM (inactive) | > 100 µM (inactive) | > 100 µM (inactive) | > 100 µM (inactive) | > 100 µM (inactive) | > 100 µM (inactive) | > 100 µM (inactive) | > 100 | > 100 µM (inactive) | > 100 µM (inactive) | > 100 µM (inactive) | > 100 µM (inactive) | > 100 µM (inactive) | > 100 µM (inactive) | > 100 µM (inactive) | 
9 | CC(=O)n1nc(-c2ccccc2)n(/N=C/c2ccc([N+](=O)[O-])cc2)c1=O | 51.3 µM (inactive) | > 100 µM (inactive) | > 100 µM (inactive) | 90.8 µM (inactive) |  | 43.5 µM (inactive) | > 100 µM (inactive) | > 100 µM (inactive) | > 100 µM (inactive) | > 100 µM (inactive) | > 100 µM (inactive) | > 100 | > 100 µM (inactive) | 59.3 µM (inactive) | > 100 µM (inactive) | 41.3 µM (inactive) | > 100 µM (inactive) | 31.1 µM (inactive) | 35 µM (inactive) | 65.9 µM (inactive)
10 | O=C1CSC(c2cccc([N+](=O)[O-])c2)N1c1ccc(-n2c(-c3ccccc3)nc3ccccc3c2=O)cc1 (configuration not stated) | > 100 µM (inactive) | > 100 µM (inactive) | > 100 µM (inactive) | > 100 µM (inactive) | > 100 µM (inactive) | 99.3 µM (inactive) | 6.68 µM (inactive) | > 100 µM (inactive) | > 100 µM (inactive) | > 100 µM (inactive) | > 100 µM (inactive) | 30.5 | > 100 µM (inactive) | 94.8 µM (inactive) | 28.2 µM (inactive) | > 100 µM (inactive) | 83.8 µM (inactive) | > 100 µM (inactive) | > 100 µM (inactive) | 
11 | CCCCc1ccc(-n2sc3ncc(-c4ccccc4)cc3c2=O)cc1 |  | > 100 µM (inactive) | > 100 µM (inactive) |  | > 100 µM (inactive) |  | 22.6 µM (inactive) | > 100 µM (inactive) | > 100 µM (inactive) | > 100 µM (inactive) | > 100 µM (inactive) | > 100 | > 100 µM (inactive) | > 100 µM (inactive) | 59.6 µM (inactive) | 42.1 µM (inactive) | > 100 µM (inactive) | > 100 µM (inactive) |  | > 100 µM (inactive)
